Source: ChEMBL document CHEMBL1909046, “DrugMatrix in vitro pharmacology data”

Tested on: not listed separately
Assay: DRUGMATRIX: Atrial Natriuretic Factor (ANF) radioligand binding (ligand: [125I] ANF (rat))
Type: cell membranes, Cavia porcellus, Dunkin-Hartley, Adrenal gland, Membrane
Conditions: Not Active = under 50% inhibition at 10 µM

SMILES	IC50	Ki
N=C(N)NC(=O)Cc1c(Cl)cccc1Cl [GUANFACINE]	Not Active	Not Active
Oc1c(Cl)cc(Cl)c(Cl)c1Cc1c(O)c(Cl)cc(Cl)c1Cl [HEXACHLOROPHENE]	Not Active	Not Active
NNc1nncc2ccccc12 [HYDRALAZINE]	Not Active	Not Active
CC(=O)[C@@]1(O)CC[C@H]2[C@@H]3CCC4=CC(=O)CC[C@]4(C)[C@H]3CC[C@@]21C [HYDROXYPROGESTERONE]	Not Active	Not Active
COC1=C(OC)C(=O)C(CCCCCCCCCCO)=C(C)C1=O [IDEBENONE]	Not Active	Not Active
CC(C)NNC(=O)c1ccncc1 [IPRONIAZID]	Not Active	Not Active
Cc1c(OCC(F)(F)F)ccnc1C[S+]([O-])c1nc2ccccc2[nH]1 (configuration not stated) [LANSOPRAZOLE]	Not Active	Not Active

Biological target: T1, Vasoactive intestinal polypeptide receptor 1 (Homo sapiens, UniProt P32241); note: in other assays of this panel Not Active means under 50% inhibition at 10 µM
T1 sequence (P32241 whole entry): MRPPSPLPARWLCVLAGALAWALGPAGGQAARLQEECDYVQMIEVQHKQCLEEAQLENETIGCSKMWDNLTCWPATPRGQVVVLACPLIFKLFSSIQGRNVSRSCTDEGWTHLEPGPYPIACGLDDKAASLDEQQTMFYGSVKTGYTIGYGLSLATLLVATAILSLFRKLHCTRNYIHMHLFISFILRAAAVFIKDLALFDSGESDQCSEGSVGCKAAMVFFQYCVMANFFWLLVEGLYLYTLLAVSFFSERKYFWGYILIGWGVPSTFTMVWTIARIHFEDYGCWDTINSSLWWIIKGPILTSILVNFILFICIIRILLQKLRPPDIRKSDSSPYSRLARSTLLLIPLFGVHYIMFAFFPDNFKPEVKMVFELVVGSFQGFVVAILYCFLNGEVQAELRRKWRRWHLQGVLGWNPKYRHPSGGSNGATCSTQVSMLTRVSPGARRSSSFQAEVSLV
Type: cell membranes, Membrane
Conditions: ht-29

SMILES	IC50
N=C(N)NC(=O)Cc1c(Cl)cccc1Cl [GUANFACINE]	Not Active
Oc1c(Cl)cc(Cl)c(Cl)c1Cc1c(O)c(Cl)cc(Cl)c1Cl [HEXACHLOROPHENE]	Not Active
NNc1nncc2ccccc12 [HYDRALAZINE]	Not Active
CC(=O)[C@@]1(O)CC[C@H]2[C@@H]3CCC4=CC(=O)CC[C@]4(C)[C@H]3CC[C@@]21C [HYDROXYPROGESTERONE]	Not Active
COC1=C(OC)C(=O)C(CCCCCCCCCCO)=C(C)C1=O [IDEBENONE]	Not Active
CC(C)NNC(=O)c1ccncc1 [IPRONIAZID]	Not Active
Cc1c(OCC(F)(F)F)ccnc1C[S+]([O-])c1nc2ccccc2[nH]1 (configuration not stated) [LANSOPRAZOLE]	Not Active

Biological target: Sodium-dependent dopamine transporter (Homo sapiens, UniProt Q01959)
Assay: DRUGMATRIX: Dopamine Transporter radioligand binding (ligand: [125I] RTI-55)
Type: cell membranes, CHO-K1, Membrane
Conditions: Not Active = under 50% inhibition at 10 µM; read-out: IC50

Sodium-dependent dopamine transporter, sequence (Q01959 whole entry): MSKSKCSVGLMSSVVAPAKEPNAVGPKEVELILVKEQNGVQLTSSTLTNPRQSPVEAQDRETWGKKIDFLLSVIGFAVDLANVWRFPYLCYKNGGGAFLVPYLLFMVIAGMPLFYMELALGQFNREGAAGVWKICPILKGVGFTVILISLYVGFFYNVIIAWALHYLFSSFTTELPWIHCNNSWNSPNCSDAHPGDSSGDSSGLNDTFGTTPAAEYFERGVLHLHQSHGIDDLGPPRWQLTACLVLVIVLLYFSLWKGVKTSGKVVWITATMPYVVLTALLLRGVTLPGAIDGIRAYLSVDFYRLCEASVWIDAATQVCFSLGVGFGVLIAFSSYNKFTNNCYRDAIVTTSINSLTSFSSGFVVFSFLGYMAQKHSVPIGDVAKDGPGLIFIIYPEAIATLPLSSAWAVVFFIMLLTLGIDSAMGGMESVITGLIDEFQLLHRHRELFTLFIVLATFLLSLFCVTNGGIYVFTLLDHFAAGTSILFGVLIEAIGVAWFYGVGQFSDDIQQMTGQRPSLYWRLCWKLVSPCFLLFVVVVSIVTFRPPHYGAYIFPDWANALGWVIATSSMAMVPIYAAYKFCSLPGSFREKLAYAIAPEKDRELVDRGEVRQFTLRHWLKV

SMILES	IC50
CC(=O)[C@@]1(O)CC[C@H]2[C@@H]3CCC4=CC(=O)CC[C@]4(C)[C@H]3CC[C@@]21C [HYDROXYPROGESTERONE]	6910 nM

Same assay, conditions: Not Active = under 50% inhibition at 10 µM; read-out: Ki

SMILES	Ki
CC(=O)[C@@]1(O)CC[C@H]2[C@@H]3CCC4=CC(=O)CC[C@]4(C)[C@H]3CC[C@@]21C [HYDROXYPROGESTERONE]	5490 nM

Same assay, conditions: cho-k1; Not Active = under 50% inhibition at 10 µM

SMILES	IC50
N=C(N)NC(=O)Cc1c(Cl)cccc1Cl [GUANFACINE]	Not Active
Oc1c(Cl)cc(Cl)c(Cl)c1Cc1c(O)c(Cl)cc(Cl)c1Cl [HEXACHLOROPHENE]	Not Active
NNc1nncc2ccccc12 [HYDRALAZINE]	Not Active
COC1=C(OC)C(=O)C(CCCCCCCCCCO)=C(C)C1=O [IDEBENONE]	Not Active
CC(C)NNC(=O)c1ccncc1 [IPRONIAZID]	Not Active
Cc1c(OCC(F)(F)F)ccnc1C[S+]([O-])c1nc2ccccc2[nH]1 (configuration not stated) [LANSOPRAZOLE]	Not Active

Tested on: not listed separately
Assay: DRUGMATRIX: Glutamate, Kainate radioligand binding (ligand: [3H] Kainic acid)
Type: cell membranes, Rattus norvegicus, Wistar, Brain, Membrane
Conditions: Not Active = under 50% inhibition at 10 µM

SMILES	IC50	Ki
N=C(N)NC(=O)Cc1c(Cl)cccc1Cl [GUANFACINE]	Not Active	Not Active
Oc1c(Cl)cc(Cl)c(Cl)c1Cc1c(O)c(Cl)cc(Cl)c1Cl [HEXACHLOROPHENE]	Not Active	Not Active
NNc1nncc2ccccc12 [HYDRALAZINE]	Not Active	Not Active
CC(=O)[C@@]1(O)CC[C@H]2[C@@H]3CCC4=CC(=O)CC[C@]4(C)[C@H]3CC[C@@]21C [HYDROXYPROGESTERONE]	Not Active	Not Active
COC1=C(OC)C(=O)C(CCCCCCCCCCO)=C(C)C1=O [IDEBENONE]	Not Active	Not Active
CC(C)NNC(=O)c1ccncc1 [IPRONIAZID]	Not Active	Not Active
Cc1c(OCC(F)(F)F)ccnc1C[S+]([O-])c1nc2ccccc2[nH]1 (configuration not stated) [LANSOPRAZOLE]	Not Active	Not Active

Biological target: T2, 3-hydroxy-3-methylglutaryl-coenzyme A reductase (Homo sapiens, UniProt P04035);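 note: enzyme inhibition assay of HMG-CoA reductase using radiolabeled [14C]HMG-CoA as substrate; in other assays of this panel Not Active means under 50% inhibition at 10 µM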
T2 sequence (P04035 whole entry): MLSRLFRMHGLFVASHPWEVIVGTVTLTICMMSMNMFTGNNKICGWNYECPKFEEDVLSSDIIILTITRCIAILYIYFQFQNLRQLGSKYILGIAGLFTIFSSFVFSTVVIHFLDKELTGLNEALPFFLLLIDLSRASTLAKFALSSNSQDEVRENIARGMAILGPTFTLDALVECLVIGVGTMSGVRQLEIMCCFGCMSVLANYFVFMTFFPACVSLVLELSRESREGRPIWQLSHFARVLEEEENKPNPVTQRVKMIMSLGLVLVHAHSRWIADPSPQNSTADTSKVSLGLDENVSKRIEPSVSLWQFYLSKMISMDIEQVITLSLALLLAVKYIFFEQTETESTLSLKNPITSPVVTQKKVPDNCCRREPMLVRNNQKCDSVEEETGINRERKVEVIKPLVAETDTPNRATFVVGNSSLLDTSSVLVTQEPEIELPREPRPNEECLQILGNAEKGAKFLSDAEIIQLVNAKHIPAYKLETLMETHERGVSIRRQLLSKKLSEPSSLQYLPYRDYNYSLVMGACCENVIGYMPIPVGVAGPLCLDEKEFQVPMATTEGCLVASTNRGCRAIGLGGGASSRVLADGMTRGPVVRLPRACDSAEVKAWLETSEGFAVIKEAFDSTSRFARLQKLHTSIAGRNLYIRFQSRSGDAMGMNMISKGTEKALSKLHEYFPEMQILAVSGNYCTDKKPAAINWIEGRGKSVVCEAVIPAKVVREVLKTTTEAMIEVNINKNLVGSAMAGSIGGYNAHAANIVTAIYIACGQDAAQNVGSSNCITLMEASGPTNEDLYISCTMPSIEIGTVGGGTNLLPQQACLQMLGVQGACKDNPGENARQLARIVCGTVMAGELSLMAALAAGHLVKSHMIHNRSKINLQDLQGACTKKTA
Design: species or system Escherichia coli
Conditions: not given

SMILES	IC50
N=C(N)NC(=O)Cc1c(Cl)cccc1Cl [GUANFACINE]	Not Active
Oc1c(Cl)cc(Cl)c(Cl)c1Cc1c(O)c(Cl)cc(Cl)c1Cl [HEXACHLOROPHENE]	Not Active
NNc1nncc2ccccc12 [HYDRALAZINE]	Not Active
CC(=O)[C@@]1(O)CC[C@H]2[C@@H]3CCC4=CC(=O)CC[C@]4(C)[C@H]3CC[C@@]21C [HYDROXYPROGESTERONE]	Not Active
COC1=C(OC)C(=O)C(CCCCCCCCCCO)=C(C)C1=O [IDEBENONE]	Not Active
CC(C)NNC(=O)c1ccncc1 [IPRONIAZID]	Not Active
Cc1c(OCC(F)(F)F)ccnc1C[S+]([O-])c1nc2ccccc2[nH]1 (configuration not stated) [LANSOPRAZOLE]	Not Active

Tested on: not listed separately
Assay: DRUGMATRIX: Potassium Channel [KATP] radioligand binding (ligand: [3H] Glyburide)
Type: cell membranes, Membrane
Conditions: hit-t15; Not Active = under 50% inhibition at 10 µM

SMILES	IC50	Ki
N=C(N)NC(=O)Cc1c(Cl)cccc1Cl [GUANFACINE]	Not Active	Not Active
Oc1c(Cl)cc(Cl)c(Cl)c1Cc1c(O)c(Cl)cc(Cl)c1Cl [HEXACHLOROPHENE]	Not Active	Not Active
NNc1nncc2ccccc12 [HYDRALAZINE]	Not Active	Not Active
CC(=O)[C@@]1(O)CC[C@H]2[C@@H]3CCC4=CC(=O)CC[C@]4(C)[C@H]3CC[C@@]21C [HYDROXYPROGESTERONE]	Not Active	Not Active
COC1=C(OC)C(=O)C(CCCCCCCCCCO)=C(C)C1=O [IDEBENONE]	Not Active	Not Active
CC(C)NNC(=O)c1ccncc1 [IPRONIAZID]	Not Active	Not Active
Cc1c(OCC(F)(F)F)ccnc1C[S+]([O-])c1nc2ccccc2[nH]1 (configuration not stated) [LANSOPRAZOLE]	Not Active	Not Active

Biological target: T3, Progesterone receptor (Bos taurus, UniProt Q690N0)
T3 sequence (Q690N0 whole entry): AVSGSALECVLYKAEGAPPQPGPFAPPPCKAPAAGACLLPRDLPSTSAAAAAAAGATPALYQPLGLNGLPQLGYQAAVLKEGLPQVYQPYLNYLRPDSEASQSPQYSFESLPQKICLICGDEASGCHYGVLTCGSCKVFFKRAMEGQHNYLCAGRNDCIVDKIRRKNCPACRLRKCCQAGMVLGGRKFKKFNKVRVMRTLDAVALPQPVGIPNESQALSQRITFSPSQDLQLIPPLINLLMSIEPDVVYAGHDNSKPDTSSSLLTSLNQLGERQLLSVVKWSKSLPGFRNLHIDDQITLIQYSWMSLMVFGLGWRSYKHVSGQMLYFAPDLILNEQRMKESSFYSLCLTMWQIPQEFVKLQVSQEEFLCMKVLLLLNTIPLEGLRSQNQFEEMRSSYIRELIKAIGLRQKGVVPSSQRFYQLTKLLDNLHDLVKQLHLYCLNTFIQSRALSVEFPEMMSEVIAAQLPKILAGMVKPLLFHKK
Assay: DRUGMATRIX: Progesterone radioligand binding (ligand: [3H] R-5020)
Type: tissue-based, Uterus
Conditions: Not Active = under 50% inhibition at 10 µM

SMILES	IC50
N=C(N)NC(=O)Cc1c(Cl)cccc1Cl [GUANFACINE]	Not Active
Oc1c(Cl)cc(Cl)c(Cl)c1Cc1c(O)c(Cl)cc(Cl)c1Cl [HEXACHLOROPHENE]	Not Active
NNc1nncc2ccccc12 [HYDRALAZINE]	Not Active
COC1=C(OC)C(=O)C(CCCCCCCCCCO)=C(C)C1=O [IDEBENONE]	Not Active
CC(C)NNC(=O)c1ccncc1 [IPRONIAZID]	Not Active
Cc1c(OCC(F)(F)F)ccnc1C[S+]([O-])c1nc2ccccc2[nH]1 (configuration not stated) [LANSOPRAZOLE]	Not Active

Same assay, conditions: Not Active = under 50% inhibition at 10 µM; read-out: IC50

SMILES	IC50
CC(=O)[C@@]1(O)CC[C@H]2[C@@H]3CCC4=CC(=O)CC[C@]4(C)[C@H]3CC[C@@]21C [HYDROXYPROGESTERONE]	12 nM

Same assay, conditions: Not Active = under 50% inhibition at 10 µM; read-out: Ki

SMILES	Ki
CC(=O)[C@@]1(O)CC[C@H]2[C@@H]3CCC4=CC(=O)CC[C@]4(C)[C@H]3CC[C@@]21C [HYDROXYPROGESTERONE]	1.55 nM
